Data published in patent US7893074B2, “2, 4-pyrimidinediamines useful in the treatment of neoplastic diseases, inflammatory and immune system disorders” (Novartis AG, priority 2003, dated 2011).
Like-named read-outs stand apart in the source and are kept apart here.

Columns and labels:
[1] = tested on: Mouse mammary carcinoma 4T1 cells; experiment: Anchorage-independent tumor cell growth assay; format: cell-based
Experimental: Cells are cultured for 2 h and inhibitors are added at various concentrations in a final concentration of 0.1% DMSO. After 48 h, cell growth is assayed with the cell counting kit-8 (Wako Pure Chemical), which uses a water soluble tetrazolium salt WST8. Twenty μL of the reagent is added into each well and cells are further cultured for 2 h. The optical density is measured at 450 nm.

[2] = tested on: T Cell; experiment: T Cell Migration; format: cell-based
[3] = biological target: Focal Adhesion Kinase (FAK) (Homo sapiens, UniProt Q05397); experiment: FAK assay system (Focal Adhesion Kinase inhibition); format: biochemical
[4] = biological target: IGF-IR (Homo sapiens, UniProt P08069); experiment: Cellular Capture ELISA of IGF-I induced autophosphorylation of the IGF-IR; format: cell-based; details: read-out: IGF-1R IC50
Experimental: In this assay the activity of the compounds of the invention against Insulin-like growth factor I (IGF-I) induced autophosphorylation of the IGF-IR is determined.

[5] = biological target: FAK (Mus musculus, UniProt P34152); experiment: Phos IC50 (phosphorylation); format: cell-based
Sequence of FAK (P34152 2-1052): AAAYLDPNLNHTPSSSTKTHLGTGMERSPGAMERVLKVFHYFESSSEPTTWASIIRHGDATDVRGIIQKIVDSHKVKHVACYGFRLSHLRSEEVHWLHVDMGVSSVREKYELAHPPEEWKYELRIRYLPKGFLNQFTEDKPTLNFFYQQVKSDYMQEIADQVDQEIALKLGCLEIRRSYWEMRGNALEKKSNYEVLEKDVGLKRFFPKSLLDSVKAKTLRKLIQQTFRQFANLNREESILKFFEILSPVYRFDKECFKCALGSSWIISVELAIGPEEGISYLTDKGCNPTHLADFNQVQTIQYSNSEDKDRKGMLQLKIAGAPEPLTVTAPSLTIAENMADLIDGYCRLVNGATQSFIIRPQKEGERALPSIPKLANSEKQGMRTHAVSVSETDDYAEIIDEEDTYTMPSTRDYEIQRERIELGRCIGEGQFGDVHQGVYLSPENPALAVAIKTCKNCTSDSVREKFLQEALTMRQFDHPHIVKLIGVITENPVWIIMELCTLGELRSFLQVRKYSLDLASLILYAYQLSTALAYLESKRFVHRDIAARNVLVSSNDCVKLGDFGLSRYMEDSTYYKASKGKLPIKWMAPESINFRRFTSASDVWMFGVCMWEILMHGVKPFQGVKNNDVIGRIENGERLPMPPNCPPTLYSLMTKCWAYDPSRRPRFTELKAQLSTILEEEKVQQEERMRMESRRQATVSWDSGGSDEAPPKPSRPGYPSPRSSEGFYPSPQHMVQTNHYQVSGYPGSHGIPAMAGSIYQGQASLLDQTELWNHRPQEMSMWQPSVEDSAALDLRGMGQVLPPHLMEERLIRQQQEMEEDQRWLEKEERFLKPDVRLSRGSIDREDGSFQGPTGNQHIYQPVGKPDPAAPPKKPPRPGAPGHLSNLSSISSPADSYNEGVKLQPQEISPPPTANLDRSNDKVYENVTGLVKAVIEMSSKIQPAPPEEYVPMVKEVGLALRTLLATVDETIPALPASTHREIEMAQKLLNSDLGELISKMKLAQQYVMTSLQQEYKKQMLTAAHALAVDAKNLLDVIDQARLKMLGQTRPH

Sequence of IGF-IR (P08069 31-1367): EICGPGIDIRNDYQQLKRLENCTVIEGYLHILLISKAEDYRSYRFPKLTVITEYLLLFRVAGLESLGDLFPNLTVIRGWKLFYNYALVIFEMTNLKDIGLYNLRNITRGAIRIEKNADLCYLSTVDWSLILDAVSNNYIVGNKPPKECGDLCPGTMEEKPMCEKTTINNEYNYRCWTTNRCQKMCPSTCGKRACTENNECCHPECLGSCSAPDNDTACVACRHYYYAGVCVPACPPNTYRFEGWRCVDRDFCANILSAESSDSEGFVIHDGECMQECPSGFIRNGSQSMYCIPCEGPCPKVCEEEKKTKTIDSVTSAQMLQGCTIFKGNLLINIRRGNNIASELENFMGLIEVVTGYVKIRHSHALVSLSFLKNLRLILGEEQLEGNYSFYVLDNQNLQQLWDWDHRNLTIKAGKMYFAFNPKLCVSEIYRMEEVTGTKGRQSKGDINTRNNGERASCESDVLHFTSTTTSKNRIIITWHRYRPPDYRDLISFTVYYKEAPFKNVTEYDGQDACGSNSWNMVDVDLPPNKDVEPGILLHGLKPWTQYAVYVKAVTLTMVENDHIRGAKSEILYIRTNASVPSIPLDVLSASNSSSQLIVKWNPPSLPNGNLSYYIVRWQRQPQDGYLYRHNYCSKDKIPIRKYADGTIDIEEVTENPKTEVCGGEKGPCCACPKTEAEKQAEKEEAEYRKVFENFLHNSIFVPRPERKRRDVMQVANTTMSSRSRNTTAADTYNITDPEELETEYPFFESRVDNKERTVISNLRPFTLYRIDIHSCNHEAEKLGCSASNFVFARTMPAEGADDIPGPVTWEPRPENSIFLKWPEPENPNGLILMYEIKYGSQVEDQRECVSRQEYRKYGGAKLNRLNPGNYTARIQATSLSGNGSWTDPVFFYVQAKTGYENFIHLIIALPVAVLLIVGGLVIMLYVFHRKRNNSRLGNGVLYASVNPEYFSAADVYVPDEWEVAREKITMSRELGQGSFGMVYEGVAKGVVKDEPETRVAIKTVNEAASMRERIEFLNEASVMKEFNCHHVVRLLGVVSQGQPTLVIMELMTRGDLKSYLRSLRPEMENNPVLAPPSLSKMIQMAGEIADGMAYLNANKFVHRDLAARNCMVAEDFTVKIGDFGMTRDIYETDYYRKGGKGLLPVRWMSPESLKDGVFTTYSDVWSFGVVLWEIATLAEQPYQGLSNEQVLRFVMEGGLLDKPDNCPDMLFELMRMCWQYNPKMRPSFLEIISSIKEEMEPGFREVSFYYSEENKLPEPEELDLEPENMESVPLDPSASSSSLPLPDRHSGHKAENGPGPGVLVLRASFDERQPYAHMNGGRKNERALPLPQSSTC
Sequence of Focal Adhesion Kinase (FAK) (Q05397 384-706): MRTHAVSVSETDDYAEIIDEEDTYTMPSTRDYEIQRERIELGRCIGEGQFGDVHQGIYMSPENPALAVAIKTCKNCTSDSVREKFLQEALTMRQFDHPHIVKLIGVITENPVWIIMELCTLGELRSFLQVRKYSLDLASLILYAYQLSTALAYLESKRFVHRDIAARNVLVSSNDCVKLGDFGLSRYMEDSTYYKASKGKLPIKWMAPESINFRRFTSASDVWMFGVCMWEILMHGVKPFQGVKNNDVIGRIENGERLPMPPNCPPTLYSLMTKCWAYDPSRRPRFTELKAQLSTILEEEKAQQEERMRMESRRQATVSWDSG

IC50 [1] [µM] | IC50 [2] [µM] | IC50 ([3]; read-out: FAK IC50) [µM] | IC50 [4] [µM] | IC50 ([1]; Mus musculus, 4T1) [µM] | IC50 [5] [µM] | IC50 ([3]; FAK assay system, read-out: FAK inhibition IC50) [µM] | Structure (SMILES) | IC50 ([3]; FAK IC50) [µM] | IC50 ([2]; T-cell) [µM]
0.05 | 0.29 | – | – | – | – | – | CNS(=O)(=O)c1ccccc1Nc1nc(Nc2ccc(N3CCC(N4CCCCC4)CC3)cc2OC)ncc1Cl [Example 20-8] | – | –
– | – | 0.0017 | 0.82 | 1.12 | 1 | – | CCC(CC)NS(=O)(=O)c1ccccc1Nc1nc(Nc2ccc(N3CCC(NC)C3)cc2OC)ncc1Cl (stereo not drawn) [Example 23-3] | – | –
– | – | 0.0066 | 0.26 | 0.15 | 0.09 | – | COc1cc(N2CCOCC2)ccc1Nc1ncc(Cl)c(Nc2ccccc2S(=O)(=O)NCC(C)C)n1 [Example 22-3] | – | –
– | – | 0.0081 | 0.2 | 0.19 | 0.013 | – | COc1cc(N2CCOCC2)ccc1Nc1ncc(Br)c(Nc2ccccc2S(=O)(=O)N(C)C)n1 [Example 51, 2-[5-bromo-2-(2-methoxy-4-morpholin-4-yl-phenylamino)-pyrimidin-7-ylamino]-N,N-dimethyl-benznensulfonamide] | – | –
– | – | 0.007 | 0.21 | 0.3 | 0.07 | – | CNS(=O)(=O)c1ccccc1Nc1nc(Nc2ccc(-n3ccnc3)cc2OC)ncc1Br [Example 3-48] | – | –
– | – | 0.008 | 0.15 | 0.1 | 0.08 | – | CNS(=O)(=O)c1ccccc1Nc1nc(Nc2cc(-c3ccncc3)ccc2OC)ncc1Br [Example 3-65] | – | –
– | – | 0.0069 | 0.07 | 0.08 | 1.2 | – | CCCS(=O)(=O)c1ccccc1Nc1nc(Nc2cc(N3CCN(C(C)=O)CC3)ccc2OC)ncc1Cl [Example 26-15] | – | –
– | – | 0.0056 | 0.27 | 0.11 | 0.2 | – | CNS(=O)(=O)c1ccccc1Nc1nc(Nc2ccc(N3CCC(C(N)=O)CC3)cc2OC)ncc1Br [Example 3-43] | – | –
– | – | 0.0021 | 0.39 | 0.11 | 0.5 | – | COc1cc(OC2CCN(C)CC2)ccc1Nc1ncc(Cl)c(Nc2ccccc2S(=O)(=O)NC2CCC2)n1 [Example 24-2] | – | –
– | – | 0.013 | > 10 | 1 | 0.22 | – | CNC(=O)c1ccccc1Nc1nc(Nc2cc(F)ccc2OC)ncc1Br [Example 8-3] | – | –
– | – | 0.042 | 2.78 | 2.5 | 0.4 | – | CNS(=O)(=O)c1ccccc1Nc1nc(Nc2ccccc2OC(F)(F)F)ncc1Cl [Example 20-3] | – | –
– | – | 0.001 | 0.25 | 0.07 | 0.08 | – | CNS(=O)(=O)c1ccccc1Nc1nc(Nc2cc(-c3cccnc3)ccc2OC)ncc1Br [Example 3-66] | – | –
– | – | 0.003 | 0.64 | 0.13 | 0.4 | – | COc1cc(OC2CCN(C)CC2)ccc1Nc1ncc(Cl)c(Nc2ccccc2S(=O)(=O)NC2CCCC2)n1 [Example 25-2] | – | –
– | – | 0.021 | > 10 | 0.98 | 0.52 | – | CNS(=O)(=O)c1ccccc1Nc1nc(Nc2cc(F)ccc2OC)ncc1Br [Example 3-81] | – | –
– | – | 0.0087 | 0.15 | 0.09 | 0.09 | – | CNS(=O)(=O)c1ccccc1Nc1nc(Nc2cc(OC)c(OC)cc2C)ncc1Cl [Example 20-35] | – | –
– | – | 0.013 | 0.09 | 2.2 | 0.7 | – | CCC(CC)S(=O)(=O)c1ccccc1Nc1nc(Nc2ccc(N3CCOCC3)cc2OC)ncc1Cl [Example 29-1] | – | –
– | – | 0.012 | 5 | 0.45 | 0.22 | – | CNS(=O)(=O)c1ccccc1Nc1nc(Nc2ccc(F)cc2OC)ncc1Br [Example 3-80] | – | –
– | – | 0.0029 | 0.27 | 0.39 | 0.3 | – | CNC(=O)c1ccccc1Nc1nc(Nc2ccc(N3CCN(C)CC3)cc2OC)ncc1Cl [Example 7-3] | – | –
1.6 | – | 0.022 | 0.6 | – | 0.36 | – | CCNC(=O)c1ccccc1Nc1nc(Nc2ccc(N3CCOCC3)cc2OC)ncc1Cl [Example 9-5] | – | –
– | – | 0.013 | 1.19 | 1 | 0.12 | – | CNS(=O)(=O)c1ccccc1Nc1nc(Nc2ccc(OC)nc2OC)ncc1Br [Example 3-50] | – | –
– | – | 0.009 | 0.2 | 0.3 | 0.04 | – | CNS(=O)(=O)c1ccccc1Nc1nc(Nc2cccc3[nH]ccc23)ncc1Br [Example 3-11] | – | –
– | – | 0.0047 | 0.19 | 0.54 | 0.6 | – | CNC(=O)c1ccccc1Nc1nc(Nc2ccc(N3CCC(N4CCCCC4)CC3)cc2OC)ncc1Cl [Example 7-1] | – | –
– | – | 0.021 | > 10 | 2 | 0.17 | – | CNS(=O)(=O)c1ccccc1Nc1nc(Nc2ccc(C)cc2OC)ncc1Br [Example 3-5] | – | –
– | – | 0.0092 | 0.42 | 0.08 | 0.17 | – | CNS(=O)(=O)c1ccccc1Nc1nc(Nc2ccc(OC3CCN(C(C)C)C3)cc2OC)ncc1Cl (stereo not drawn) [Example 20-28] | – | –
– | – | 0.0076 | 0.33 | 0.36 | 0.3 | – | CNC(=O)c1ccccc1Nc1nc(Nc2ccc(N3CCC(N4CCN(C)CC4)CC3)cc2OC)ncc1Cl [Example 7-14] | – | –

The remaining lines, values behind:

Structure (SMILES) | IC50 [1] [µM] | IC50 [2] [µM] | IC50 ([3]; read-out: FAK IC50) [µM] | IC50 [4] [µM] | IC50 ([1]; Mus musculus, 4T1) [µM] | IC50 [5] [µM] | IC50 ([3]; FAK assay system, read-out: FAK inhibition IC50) [µM] | IC50 ([3]; FAK IC50) [µM] | IC50 ([2]; T-cell) [µM]
COc1cc(N2CCCC(C(N)=O)C2)ccc1Nc1ncc(Cl)c(Nc2ccccc2S(=O)(=O)C(C)C)n1 (stereo not drawn) [Example 28-1] | – | – | 0.012 | 0.3 | 0.46 | 0.3 | – | – | –
COc1cc(N2CCOCC2)ccc1Nc1ncc(Cl)c(Nc2ccccc2S(=O)(=O)NC2CCC2)n1 [Example 24-1] | – | – | 0.0036 | 0.05 | 0.44 | 0.11 | – | – | –
CNC1CCN(c2ccc(Nc3ncc(Cl)c(Nc4ccccc4S(=O)(=O)NC(C)C)n3)c(OC)c2F)C1 (stereo not drawn) [Example 19-12] | – | – | 0.009 | 0.63 | 0.7 | > 10 | – | – | –
CNS(=O)(=O)c1ccccc1Nc1nc(Nc2ccc(N3CCS(=O)(=O)CC3)cc2OC)ncc1Br [Example 3-44] | – | – | 0.011 | 0.09 | 0.09 | 0.05 | – | – | –
CNS(=O)(=O)c1cc(F)ccc1Nc1nc(Nc2ccc(N3CCOCC3)cc2OC)ncc1Br [Example 52, 2-[5-Bromo-2-(2-methoxy-4-morpholin-4-yl-phenylamino)-pyrimidin-4-ylamino]-5-fluoro-N-methyl-benzenesulfonamide] | – | – | 0.013 | < 0.08 | 0.41 | 0.2 | – | – | –
CCNC1CCN(c2ccc(Nc3ncc(Cl)c(Nc4ccccc4S(=O)(=O)NC(CC)CC)n3)c(OC)c2)C1 (stereo not drawn) [Example 23-4] | – | – | 0.0012 | 0.6 | 1.07 | 0.9 | – | – | –
CCCS(=O)(=O)c1ccccc1Nc1nc(Nc2ccc(OC3CCN(C)CC3)cc2OC)ncc1Cl [Example 26-26] | – | – | 0.0019 | 0.34 | 0.07 | 0.2 | – | – | –
CNC(=O)c1ccccc1Nc1nc(Nc2ccc(N3CCC(N(C)C)C3)cc2OC)ncc1Cl (stereo not drawn) [Example 7-11] | – | – | 0.0025 | 0.77 | 1.2 | 0.6 | – | – | –
COc1cc(NCC(C)(C)CN(C)C)ccc1Nc1ncc(Cl)c(Nc2ccccc2S(=O)(=O)NC(C)C)n1 [Example 19-10] | – | – | 0.0013 | 1.02 | 0.56 | 0.06 | – | – | –
CCC(CC)NS(=O)(=O)c1ccccc1Nc1nc(Nc2ccc(N3CCN(C)CC3)cc2OC)ncc1Cl [Example 23-2] | – | – | 0.0015 | 0.8 | 0.4 | 0.2 | – | – | –
CCCS(=O)(=O)c1ccccc1Nc1nc(Nc2ccc(N3CCN(C(C)C)CC3)cc2OC)ncc1Cl [Example 26-23] | – | – | 0.0014 | 0.18 | 0.09 | 0.3 | – | – | –
CNS(=O)(=O)c1ccccc1Nc1nc(Nc2cc(OC)c(OC)cc2C)ncc1Br [Example 3-17] | – | – | 0.0028 | < 0.08 | 0.2 | 0.03 | 0.001 to 0.005 | – | –
CNS(=O)(=O)c1ccccc1Nc1nc(Nc2cc(OC)ccc2OC)ncc1Br [Example 3-15] | – | – | 0.007 | 0.94 | 0.8 | 0.02 | – | – | –
COc1cc(N2CCOCC2)ccc1Nc1ncc(Cl)c(Nc2ccccc2S(=O)(=O)C2CCCC2)n1 [Example 33-2] | – | – | 0.0052 | 0.1 | 0.25 | 0.06 | – | – | –
CNC(=O)c1ccccc1Nc1nc(Nc2ccc(OC3CCN(C)CC3)cc2OC)ncc1Cl [Example 7-5] | – | – | 0.0062 | 0.25 | 0.2 | 0.3 | – | – | –
CNS(=O)(=O)c1ccccc1Nc1nc(Nc2cc(-c3ccc(OC)cc3)ccc2C)ncc1Br [Example 3-25] | – | – | 0.022 | 0.81 | 0.3 | 0.3 | – | – | –
CNS(=O)(=O)c1ccccc1Nc1nc(Nc2cc(OCCCN3CCOCC3)ccc2OC)ncc1Br [Example 3-73] | – | – | 0.011 | 1.63 | 0.29 | 0.03 | – | – | –
CNS(=O)(=O)c1ccccc1Nc1nc(Nc2ccc(N3CCCC(C(N)=O)C3)cc2OC)ncc1Br (stereo not drawn) [Example 3-68] | – | – | – | – | 0.63 | – | – | 0.0055 | 1
CCN1CCC(Oc2ccc(Nc3ncc(Cl)c(Nc4ccccc4S(=O)(=O)NC)n3)c(OC)c2)C1 (stereo not drawn) [Example 20-30] | – | – | 0.0076 | 0.67 | 0.08 | 0.3 | – | – | –
